“Also recorded” adds a separate entry of the source. Where two headings read alike, the source gives them in different places. Where only a bound is given, the exact number is not on record here.

Series [1] concerns the target T1, FAK (Homo sapiens, UniProt Q05397). Description: Western blot of FAK and its phosphorylation sites in TPC-1 cells. The format is cell-based. Conditions: TPC-1 cells, 50, 100 and 200 nmol/L, 48 h. As for the experimental part:
Different concentrations of compound 14f are applied to TCP-1 cells for 48 h, after which the cells are collected and lysed in RIPA lysis buffer (Solarbio, R0010). Protein concentration is determined using the BCA Protein Concentration Assay Kit (Solarbio, PC0020). Proteins were denatured using 4X SDS-PAGE loading buffer (Solarbio, P1016) at 100 °C for 10 min. The denatured protein samples are separated by SDS-PAGE electrophoresis. Proteins are transferred from the gel to nitrocellulose (NC) membrane (Pall Corporation, P/N 66485) and blocked with 5% non-fat milk for 1 h at room temperature. After washing with TBST, the primary antibody is added and incubated overnight at 4 °C. The membrane is washed with TBST and then incubated with the secondary antibody at room temperature for 1–2 h. The membrane is washed again with TBST, and the protein bands are visualised using an ECL (Solarbio, PE0010) ultra-sensitive luminescent reagent, followed by imaging with a chemiluminescence imaging analyser (Cytiva, […] ImageQuant 800, JPN). The ladder used for Western Blot experiments was purchased from Thermo Scientific (Thermo Scientific, catalog number:26616). […]

The test system of series [2] is TPC-1 cells. Description: Cell cycle distribution. Type of series: cell-based. The following applies: 48-h treatment.
Series [3] has as its system thyroid cancer cells TPC-1. Description: Transwell migration assay. Type of series: cell-based. Conditions: TPC-1 cells, 48 h. As for the experimental part:
A 24-well plate is filled with 500 μL of RPMI-1640 medium containing 20% serum per well, and Transwell chambers are placed in the wells. TCP-1 cells are resuspended in serum-free medium and mixed with compound 14f, then added to the upper chamber of the Transwell chambers. The 24-well plates are incubated at 37 °C with 5% CO2 for 48 h. After incubation, the plates are removed, and the chambers are immersed in 4% paraformaldehyde and fixed at room temperature for 10 min. Following fixation, 0.1% crystal violet staining solution is added to the 24-well plates, and the chambers are stained at room temperature for 30 min. After staining, the plates are washed, the upper layer of cells is gently wiped off with a cotton swab, and the chambers are air-dried. Images are captured using a microscope.

Series [4] deals with TPC-1 cells. Briefly: Colony formation assay. Type of series: cell-based. The following applies: 5-day treatment. How it is done:
TCP-1 cells are plated at a density of 10,000 to 20,000 cells per well in a 6-well plate. After cell adhesion, the cells are treated with different concentrations of compound 14f and cultured for 5 days in an incubator. At the end of the culture period, the medium is aspirated, and the cells are washed three times with PBS. The cells are then fixed with 4% paraformaldehyde for 20 min at room temperature. After fixation, the fixative is removed, and the cells are stained with 0.1% crystal violet at room temperature for 20 min. Following staining, the cells are rinsed with PBS until the purple colour is completely washed away, and then air-dried for image acquisition.

The subject of series [5] is thyroid cancer cells TPC-1. Description: Wound healing assay. The format is cell-based. The following applies: TPC-1 cells, various durations. As for the experimental part:
TCP-1 cells are seeded into a 6-well cell culture plate and cultured in an incubator at 37 °C with 5% CO2. Once the cells uniformly cover the bottom of the well, a vertical line is drawn in the centre of each well to mark the initial scratch. Fresh medium is replaced and different concentrations of 14f are added. Photographs are taken to document the healing at 0 h, 24 h, 36 h and 48 h post-scratch. Images are processed using ImageJ software. Data analysis is performed using GraphPad Prism software version 8.0.

Series [6] relates to thyroid cancer cells TPC-1. Description: MTT antiproliferative assay. The format is cell-based. How it is done: Thyroid cancer cells TCP-1 were provided by Wuhan Servicebio Co., Ltd. TCP-1 cells are cultured in RPMI-1640 medium supplemented with 10% foetal bovine serum (FBS), 100 U/mL penicillin, and 0.1 mg/mL streptomycin. All cells are maintained in a humidified incubator at 37 °C with 5% CO2.
The TCP-1 cell line is seeded into a 96-well plate and incubated under conditions of 37 °C and 5% CO2. After the cells adhere, different concentrations of compounds are added and the incubation continues for 48 h under the same conditions. Subsequently, MTT reagent is added to the medium and the incubation is continued for an additional 4 h at 37 °C. After the incubation, the medium is aspirated, and 150 μL of DMSO solution is added to dissolve the purple-blue crystals by shaking. The absorbance of the solution is measured at a wavelength of 490 nm. The IC50 value of the compounds is calculated using SPSS software version 20.0.

In series [7] the target is T1, FAK. Description: Kinase inhibition assay (Kinase-Glo Plus). Conditions: 10 µM ATP. Type of series: biochemical. The text has this:
It measures kinase activity by quantitating the amount of ATP remaining in solution following a kinase reaction. The luminescent signal from the assay is correlated with the amount of ATP present and is inversely correlated with the amount of kinase activity.

In another series the target is ALK (Homo sapiens, UniProt Q9UM73). Briefly: Kinase inhibition assay (Kinase-Glo Plus). The format is biochemical. Conditions: Figure 3A; 10 µM ATP; read-out: IC50 (nmol/L) ALK. How it is done: (§1) The 50 µl reaction mixture contains 40 mM Tris, pH 7.4, 10 mM MgCl2, 0.1 mg/ml BSA, 1 mM DTT, 10 µM ATP, Kinase and the enzyme substrate. The compound was diluted in 10% DMSO and 5 µl of the dilution was added to a 50 µl reaction so that the final concentration of DMSO is 1% in all of the reactions. The assay was performed using a Kinase-Glo Plus luminescence kinase assay kit. It measures kinase activity by quantitating the amount of ATP remaining in solution following a kinase reaction. The luminescent signal from the assay is correlated with the amount of ATP present and is inversely correlated with the amount of kinase activity. The IC50 values were calculated using nonlinear regression with normalised dose-response fit using Prism GraphPad software.
ALK, sequence (Q9UM73 19-1620, species assumed): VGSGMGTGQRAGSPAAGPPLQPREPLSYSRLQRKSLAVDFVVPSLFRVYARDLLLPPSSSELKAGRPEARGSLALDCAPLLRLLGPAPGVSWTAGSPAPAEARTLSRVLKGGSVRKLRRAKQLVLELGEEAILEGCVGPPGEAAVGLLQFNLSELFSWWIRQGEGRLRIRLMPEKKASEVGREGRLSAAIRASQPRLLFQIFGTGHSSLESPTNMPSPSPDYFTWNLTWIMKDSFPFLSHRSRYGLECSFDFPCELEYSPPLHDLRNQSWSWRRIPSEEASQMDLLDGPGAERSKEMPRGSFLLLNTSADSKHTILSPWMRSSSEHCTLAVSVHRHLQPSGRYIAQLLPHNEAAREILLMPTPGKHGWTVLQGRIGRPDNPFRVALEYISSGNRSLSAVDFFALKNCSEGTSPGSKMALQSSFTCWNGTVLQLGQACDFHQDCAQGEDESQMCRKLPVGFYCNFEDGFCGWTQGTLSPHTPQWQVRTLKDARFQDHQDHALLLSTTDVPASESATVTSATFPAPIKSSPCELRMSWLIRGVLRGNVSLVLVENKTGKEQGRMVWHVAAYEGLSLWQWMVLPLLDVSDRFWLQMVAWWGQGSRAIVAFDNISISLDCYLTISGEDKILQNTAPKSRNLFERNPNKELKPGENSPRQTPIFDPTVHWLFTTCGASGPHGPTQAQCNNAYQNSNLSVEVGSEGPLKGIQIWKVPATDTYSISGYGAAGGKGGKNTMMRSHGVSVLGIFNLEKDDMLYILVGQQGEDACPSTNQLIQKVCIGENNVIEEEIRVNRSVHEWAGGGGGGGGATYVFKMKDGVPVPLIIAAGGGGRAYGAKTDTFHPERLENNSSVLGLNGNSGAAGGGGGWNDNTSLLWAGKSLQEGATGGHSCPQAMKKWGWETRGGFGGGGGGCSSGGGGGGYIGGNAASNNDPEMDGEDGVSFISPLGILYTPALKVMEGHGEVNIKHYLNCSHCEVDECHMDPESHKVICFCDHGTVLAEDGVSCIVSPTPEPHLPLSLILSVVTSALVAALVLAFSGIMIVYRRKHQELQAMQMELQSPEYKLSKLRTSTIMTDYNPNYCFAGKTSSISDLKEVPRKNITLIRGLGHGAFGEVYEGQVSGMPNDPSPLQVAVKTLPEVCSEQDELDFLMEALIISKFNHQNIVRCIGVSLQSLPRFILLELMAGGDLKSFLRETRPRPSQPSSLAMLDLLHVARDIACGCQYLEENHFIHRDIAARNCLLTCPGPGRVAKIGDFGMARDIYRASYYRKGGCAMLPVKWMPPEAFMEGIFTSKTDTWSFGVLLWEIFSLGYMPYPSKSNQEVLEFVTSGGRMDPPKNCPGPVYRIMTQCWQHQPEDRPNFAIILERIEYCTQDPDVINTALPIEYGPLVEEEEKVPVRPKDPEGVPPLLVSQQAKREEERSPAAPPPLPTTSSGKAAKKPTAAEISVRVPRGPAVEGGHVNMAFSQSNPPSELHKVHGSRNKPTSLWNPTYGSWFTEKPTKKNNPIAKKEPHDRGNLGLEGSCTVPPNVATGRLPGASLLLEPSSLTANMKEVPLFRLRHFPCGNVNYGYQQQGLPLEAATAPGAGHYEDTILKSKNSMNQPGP

In a further series the target is EGFR (Homo sapiens, UniProt P00533). Description: Kinase inhibition assay (Kinase-Glo Plus). The format is biochemical. The following applies: Figure 3A; 10 µM ATP; read-out: IC50 (nmol/L) EGFR. As for the experimental part:
as §1

A further series has as its target ROS1 (Homo sapiens, UniProt P08922). Briefly: Kinase inhibition assay (Kinase-Glo Plus). The format is biochemical. Conditions: Figure 3A; 10 µM ATP; read-out: IC50 (nmol/L) ROS1. How it is done:
as §1

The test system of series [8] is thyroid cancer cells TPC-1. Briefly: EdU staining assay. Type of series: cell-based. The following applies: TPC-1 cells, 48 h. How it is done:
TCP-1 cells are treated with compound 14f, followed by the addition of an equal volume of 1X EdU working solution to the drug-containing medium, and incubated under conditions of 37 °C and 5% CO2 for 4 h. After incubation, the cells are fixed with 4% paraformaldehyde for 15 min. The fixative is then removed, and the cells are permeabilized with PBS containing 0.3% Triton X-100 at room temperature. After washing, the Click reaction working solution is added and incubated at 37 °C for 30 min. The cells are then washed and stained with a prepared Hoechst staining solution for 10 min to stain the cell nuclei. After staining, the staining solution is removed, the cells are washed, and images are captured and saved using a fluorescence microscope.

A further series relates to MCF7 cells. Conditions: cited from earlier work.

T1 sequence (Q05397 whole entry, species assumed): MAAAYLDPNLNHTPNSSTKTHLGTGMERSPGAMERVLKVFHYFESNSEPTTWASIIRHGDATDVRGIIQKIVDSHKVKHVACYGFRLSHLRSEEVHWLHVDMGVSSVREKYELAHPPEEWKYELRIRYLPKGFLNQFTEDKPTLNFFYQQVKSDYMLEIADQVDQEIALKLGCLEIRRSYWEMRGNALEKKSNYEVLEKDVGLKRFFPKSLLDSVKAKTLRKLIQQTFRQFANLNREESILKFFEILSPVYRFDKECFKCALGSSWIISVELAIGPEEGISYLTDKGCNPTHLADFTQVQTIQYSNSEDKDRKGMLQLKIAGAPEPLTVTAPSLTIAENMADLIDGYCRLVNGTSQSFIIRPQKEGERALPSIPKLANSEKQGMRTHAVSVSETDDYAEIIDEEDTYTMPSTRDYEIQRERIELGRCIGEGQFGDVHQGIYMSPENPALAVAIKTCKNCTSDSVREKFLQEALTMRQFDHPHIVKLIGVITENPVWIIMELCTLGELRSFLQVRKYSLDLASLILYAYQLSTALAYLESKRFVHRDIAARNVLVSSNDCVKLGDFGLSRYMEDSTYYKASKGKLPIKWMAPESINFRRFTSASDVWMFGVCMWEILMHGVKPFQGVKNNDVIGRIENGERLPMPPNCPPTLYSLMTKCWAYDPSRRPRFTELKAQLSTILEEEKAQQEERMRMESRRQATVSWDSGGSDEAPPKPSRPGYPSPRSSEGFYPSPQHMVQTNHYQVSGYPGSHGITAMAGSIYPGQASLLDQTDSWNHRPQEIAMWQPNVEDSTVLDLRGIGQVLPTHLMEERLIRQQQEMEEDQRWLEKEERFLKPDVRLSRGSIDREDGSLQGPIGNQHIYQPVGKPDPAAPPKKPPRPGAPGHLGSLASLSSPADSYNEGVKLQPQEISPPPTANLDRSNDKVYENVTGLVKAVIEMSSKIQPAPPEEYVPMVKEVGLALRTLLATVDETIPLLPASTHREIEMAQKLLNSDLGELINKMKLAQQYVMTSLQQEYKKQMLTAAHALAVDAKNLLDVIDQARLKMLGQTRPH
ROS1, sequence (P08922 1883-2347 limits assumed): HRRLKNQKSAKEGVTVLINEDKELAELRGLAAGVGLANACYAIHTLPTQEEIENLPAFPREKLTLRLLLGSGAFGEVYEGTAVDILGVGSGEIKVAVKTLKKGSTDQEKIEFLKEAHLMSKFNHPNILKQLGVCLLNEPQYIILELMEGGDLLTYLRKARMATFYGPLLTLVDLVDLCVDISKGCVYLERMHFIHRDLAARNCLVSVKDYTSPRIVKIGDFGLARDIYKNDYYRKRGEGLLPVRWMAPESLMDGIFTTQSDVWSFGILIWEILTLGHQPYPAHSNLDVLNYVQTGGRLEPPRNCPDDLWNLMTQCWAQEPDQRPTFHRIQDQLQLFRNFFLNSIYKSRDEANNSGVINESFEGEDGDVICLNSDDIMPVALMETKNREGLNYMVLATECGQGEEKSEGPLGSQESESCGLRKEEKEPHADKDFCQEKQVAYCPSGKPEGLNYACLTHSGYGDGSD
EGFR, sequence (P00533 25-1210, species assumed): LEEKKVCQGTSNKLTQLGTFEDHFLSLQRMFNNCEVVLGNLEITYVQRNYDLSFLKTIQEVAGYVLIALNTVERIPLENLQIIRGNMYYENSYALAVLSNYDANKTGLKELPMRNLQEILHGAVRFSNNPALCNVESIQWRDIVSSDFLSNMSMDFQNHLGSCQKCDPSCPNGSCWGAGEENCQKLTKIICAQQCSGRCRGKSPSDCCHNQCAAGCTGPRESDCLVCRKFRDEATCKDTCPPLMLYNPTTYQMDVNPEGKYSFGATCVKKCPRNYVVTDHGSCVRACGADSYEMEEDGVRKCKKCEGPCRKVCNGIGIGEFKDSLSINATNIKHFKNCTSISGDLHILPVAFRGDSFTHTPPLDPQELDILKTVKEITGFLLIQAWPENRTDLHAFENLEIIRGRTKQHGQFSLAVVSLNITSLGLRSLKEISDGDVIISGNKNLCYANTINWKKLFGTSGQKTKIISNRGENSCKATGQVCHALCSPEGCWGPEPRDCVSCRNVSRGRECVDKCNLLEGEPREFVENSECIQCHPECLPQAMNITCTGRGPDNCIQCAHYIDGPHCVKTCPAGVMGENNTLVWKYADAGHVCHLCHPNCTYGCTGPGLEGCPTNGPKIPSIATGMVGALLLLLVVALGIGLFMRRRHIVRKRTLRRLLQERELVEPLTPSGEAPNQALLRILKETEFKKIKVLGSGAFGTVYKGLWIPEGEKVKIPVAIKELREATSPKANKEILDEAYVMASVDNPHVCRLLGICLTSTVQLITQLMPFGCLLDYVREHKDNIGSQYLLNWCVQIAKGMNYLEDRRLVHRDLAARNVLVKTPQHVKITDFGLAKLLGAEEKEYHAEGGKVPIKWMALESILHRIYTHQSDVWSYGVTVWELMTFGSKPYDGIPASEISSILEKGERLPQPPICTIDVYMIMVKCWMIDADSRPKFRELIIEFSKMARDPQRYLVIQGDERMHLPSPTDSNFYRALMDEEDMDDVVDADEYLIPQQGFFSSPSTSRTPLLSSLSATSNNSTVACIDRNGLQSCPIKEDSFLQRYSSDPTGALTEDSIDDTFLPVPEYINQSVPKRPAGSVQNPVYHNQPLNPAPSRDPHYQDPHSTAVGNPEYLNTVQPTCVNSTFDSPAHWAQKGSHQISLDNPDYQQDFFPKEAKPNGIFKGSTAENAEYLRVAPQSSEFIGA

In turn, `CNC(=O)c1ccccc1Nc1nc(N/N=C/c2ccc(F)cc2)ncc1Cl` [14f, (E)-2-((5-chloro-2–(2-(4-fluorobenzylidene)hydrazineyl)pyrimidin-4-yl)amino)-N-methylbenzamide] showed a melting point of 176.1 to 177.8 °C. For the same molecule, on FAK [1], the “expression level of FAK” value is reported as “did not affect the expression level of FAK; also recorded: no significant changes”. The cell cycle distribution result with TPC-1 cells [2] is “pronounced G1 phase arrest”. Further, the “number of cells that traversed through the membrane” value in series [3] is listed as “significant reduction”. Also, the “concentration from which colony formation is discernibly inhibited” value in the series with TPC-1 cells [4] is given as at least 100 nmol/L. The “wound healing (cell migration)” value in series [5] was “significant inhibitory effect on cell migration”. For the same molecule, the IC50 in series [6] (Homo sapiens, TPC1, 48 h, MTT assay, 48 h, average with SD (n = 3, duplicate), read-out: IC50 (μM), antiproliferative activity against thyroid cancer cells TPC-1) is 0.113 ± 0.003 µM. Further, in series [6] (ratio of IC50 values, TPC-1 cells), the “times more potent than TAE-226 in TPC-1 cells” value is reported as “approximately 8.57 times”. Also, the IC50 at FAK [7] was 35 nM. In addition, the IC50 at ALK was found to be 285 nmol/L. Besides, the IC50 at EGFR was over 1000 nmol/L. On ROS1, the IC50 stood at 593 nmol/L. Moreover, the “number of cells positive for EdU” value in series [8] is given as “significant reduction”.

Consider `C/C(=N\N=c1/[nH]c2cc(F)c(F)cc2n1C)c1ncccn1` [compound 8], for which, in the series with MCF7 cells (read-out: IC50, antiproliferative activity against MCF7 cells), the IC50 is 3.3 nM.

`Cn1c2nc(N/N=C/c3cccc(Br)c3)nc(=O)c-2cc2ccccc21` [compound 9]: the IC50 with MCF7 cells (read-out: IC50, proliferative activity of MCF7 cells) was 0.1 nM.
